The values below are quoted from earlier work in publication PMC3147153 (Clinical cancer research : an official journal of the …, 2009).

For the series, the system named is CYP3A4. Particulars: in vitro; ref studies done by Ariad Pharmaceuticals; cited from earlier work.

Molecules are shown by their SMILES.

As to `CO[C@H]1C[C@@H]2CC[C@@H](C)[C@@](O)(O2)C(=O)C(=O)N2CCCC[C@H]2C(=O)O[C@H]([C@H](C)C[C@@H]2CC[C@@H](O)[C@H](OC)C2)CC(=O)[C@H](C)/C=C(\C)[C@@H](O)[C@@H](OC)C(=O)[C@H](C)C[C@H](C)/C=C/C=C/C=C/1C` [sirolimus, reference compound], the “metabolism by CYP3A4” value is recorded as “primarily metabolized by CYP3A4”.
